Tested on: NCI-H23 complex spheroids with HUVEC/MSC, viability
Experiment: Anticancer human tumor NCI-H23 cell line growth inhibition [RAS];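 on viability, T/C: 100% = DMSO vehicle control viability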
Details: for IC50: curve of first compound; for viability, T/C: stronger effect = lower value
Text: RAS pathway inhibitors in Combinations in Complex Spheroids
A high-throughput screen of multi-cell type tumor spheroids was designed to identify active combinations of RAS pathway inhibitors and targeted small molecules. Complex spheroids include a stromal component modeled by human endothelial cells (HUVEC) and fibroblasts modeled by human mesenchymal stem cells (MSCs). The concentration ranges selected for each drug and investigational agent were based upon clinically achievable concentrations if the clinical Cmax of the agent was known.
Compounds. The drugs and investigational agents: abemaciclib (NSC768073), cobimetinib (NSC768068), divarasib (GDC6063, NSC841802), docetaxel (NSC628503), GDC-1971 (RLY-1971, NSC841576), gemcitabine (NSC613327), inavolisib (NSC800729), ipatasertib (NSC767898), KB-0742 (NSC834161), MRTX-1133 (NSC836407), osimertinib (NSC779217), RMC-4630 (NSC839698), RMC-6236 (NSC851965), RMC-6291 (NSC852671), Ro-3306 (NSC812927), sapanisertib (NSC764658), SN-38 (NSC673596), staurosporine (NSC755774), SY5609 (NSC837396), and tovorafenib (DAY101, NSC766906), were obtained from the National Cancer Institute (NCI) Developmental Therapeutics Program Chemical Repository. The FDA-approved anticancer drug set is available from the NCI Developmental Therapeutics Program. […] The stock solutions were prepared in dimethyl sulfoxide (DMSO, Sigma-Aldrich, St. Louis, MO, cat. D2650) at 800-fold the tested concentration and stored at -70 degrees C prior to their use. All drugs and investigational agents were tested over a range starting from a high concentration at or near the clinical Cmax and decreasing in half-log increments. If the clinical Cmax for an agent had not been determined, the highest concentration tested was 10 microM.
Cell Culture. All cells were maintained in an incubator at 37 degrees C and 5% CO2 with 95% humidity. The PDC lines were cultured according to standard operating procedures established by the NCI PDMR. All PDCs were thawed and cultured in Matrigel-coated flasks prepared with a working solution of 1X Ham's F-12 nutrient mix, without supplementation (Invitrogen, Waltham, MA, cat. 11765054), 100 U/mL penicillin-streptomycin (Invitrogen, cat. 15140122), and 2.5% Matrigel (Corning Inc., Corning, NY, cat. 354248) for the first three passages. The 362531-283-R-J2-PDC and 782815-120-R-J1-PDC lines were cultured in 6C/Colon 1B media, which includes advanced DMEM/F-12 (Thermo Fisher Scientific, cat. 12634028), 10 mM HEPES (Thermo Fisher Scientific, cat. 15630080), 1X GlutaMAX supplement (Thermo Fisher Scientific, cat. 35050061), 0.1 mg/mL primocin (InvivoGen, San Diego, CA, cat. ant-pm-2), 10% defined fetal bovine serum, heat inactivated (HyClone Laboratories Inc., Logan, UT, cat. SH30070.03HI), 50% L-WRN conditioned media (ATCC, cat. CRL-3276), 1.25 mM N-Acetyl-L-cysteine (Sigma-Aldrich, cat. A9165), 10 mM nicotinamide (Sigma-Aldrich, cat. N0636), 1X B-27 supplement (Thermo Fisher Scientific, cat. 17504044), 1X N-2 supplement (Thermo Fisher Scientific, cat. 17502048), 50 ng/mL human EGF (Thermo Fisher Scientific, cat. PHG0311), and 10 microM Y-27632 dihydrochloride (Tocris Bioscience, cat. 1254). The K12877-001-R-J1-PDC line was cultured in 6I media, which includes all 6C/Colon 1B media plus 10 ng/mL human FGF-10 (PeproTech, cat. 100-26), 1 ng/mL human FGF-2 (PeproTech, cat. 100-18B), 1 µM prostaglandin E2 (Tocris Bioscience, cat. 2296), […] hydrocortisone (Sigma-Aldrich, cat. H4001), and […] bovine insulin (Sigma-Aldrich, cat. I6634). The K86415-001-R-J1-PDC line was cultured in 6D media, which includes all 6C/Colon 1B media components minus the L-WRN conditioned media. The 485176-168-R4-J1-PDC was cultured in PANC media, which includes all 6C/Colon 1B media plus 100 ng/mL human FGF-10 (PeproTech, cat. 100-26), 500 nM SB-431542 (Selleckchem, cat. S1067), and 10 nM gastrin (Tocris Bioscience, cat. 3006). […]

[1] = second compound 0.0316 µM, first compound 0.0316 µM
[2] = second compound 0.0316 µM, first compound 0.1 µM
[3] = second compound 0.0316 µM, first compound 0.316 µM
[4] = second compound 0.0316 µM, first compound 1 µM
[5] = second compound 0.1 µM, first compound 0.0316 µM
[6] = second compound 0.1 µM, first compound 0.1 µM
[7] = second compound 0.1 µM, first compound 0.316 µM
[8] = second compound 0.1 µM, first compound 1 µM
[9] = second compound 0.316 µM, first compound 0.0316 µM
[10] = second compound 0.316 µM, first compound 0.1 µM
[11] = second compound 0.316 µM, first compound 0.316 µM
[12] = second compound 0.316 µM, first compound 1 µM
[13] = second compound 1 µM, first compound 0.0316 µM
[14] = second compound 1 µM, first compound 0.1 µM
[15] = second compound 1 µM, first compound 0.316 µM
[16] = second compound 1 µM, first compound 1 µM
[17] = second compound 3.16 µM, first compound 0.0316 µM
[18] = second compound 3.16 µM, first compound 0.1 µM
[19] = second compound 3.16 µM, first compound 0.316 µM
[20] = second compound 3.16 µM, first compound 1 µM
[21] = second compound 10 µM, first compound 0.0316 µM
[22] = second compound 10 µM, first compound 0.1 µM
[23] = second compound 10 µM, first compound 0.316 µM
[24] = second compound 10 µM, first compound 1 µM

## CC(Nc1ccc2c(c1)OCCn1cc(N3C(=O)OCC3C(F)F)nc1-2)C(N)=O (centres undefined) + C#Cc1c(F)ccc2cc(O)cc(-c3ncc4c(N5CC6CCC(C5)N6)nc(OCC56CCCN5CC(F)C6)nc4c3F)c12
Second compound 0.0316 µM
  IC50: > 10000 nM
Second compound 0.1 µM
  IC50: > 10000 nM
Second compound 0.316 µM
  IC50: > 10000 nM
Second compound 1 µM
  IC50: > 10000 nM
Second compound 3.16 µM
  IC50: 207 nM
Second compound 10 µM
  IC50: < 31.6 nM
[1]
  viability, T/C: 96.5%
[2]
  viability, T/C: 112%
[3]
  viability, T/C: 74.5%
[4]
  viability, T/C: 70.5%
Second compound 0.0316 µM, first compound 3.16 µM
  viability, T/C: 62.9%
Second compound 0.0316 µM, first compound 10 µM
  viability, T/C: 74%
[5]
  viability, T/C: 108%
[6]
  viability, T/C: 119%
[7]
  viability, T/C: 77.3%
[8]
  viability, T/C: 69.3%
Second compound 0.1 µM, first compound 3.16 µM
  viability, T/C: 64.9%
Second compound 0.1 µM, first compound 10 µM
  viability, T/C: 71.2%
[9]
  viability, T/C: 107%
[10]
  viability, T/C: 107%
[11]
  viability, T/C: 66.2%
[12]
  viability, T/C: 66.8%
Second compound 0.316 µM, first compound 3.16 µM
  viability, T/C: 63.7%
Second compound 0.316 µM, first compound 10 µM
  viability, T/C: 60.9%
[13]
  viability, T/C: 98.8%
[14]
  viability, T/C: 86.5%
[15]
  viability, T/C: 60.8%
[16]
  viability, T/C: 54%
Second compound 1 µM, first compound 3.16 µM
  viability, T/C: 49.5%
Second compound 1 µM, first compound 10 µM
  viability, T/C: 63.8%
[17]
  viability, T/C: 61.2%
[18]
  viability, T/C: 63.6%
[19]
  viability, T/C: 39.8%
[20]
  viability, T/C: 40.4%
Second compound 3.16 µM, first compound 3.16 µM
  viability, T/C: 43.1%
Second compound 3.16 µM, first compound 10 µM
  viability, T/C: 48.1%
[21]
  viability, T/C: 36.6%
[22]
  viability, T/C: 38.7%
[23]
  viability, T/C: 27.5%
[24]
  viability, T/C: 23.4%
Second compound 10 µM, first compound 3.16 µM
  viability, T/C: 30.8%
Second compound 10 µM, first compound 10 µM
  viability, T/C: 24.2%

## CCN1CCN(Cc2ccc(Nc3ncc(F)c(-c4cc(F)c5nc(C)n(C(C)C)c5c4)n3)nc2)CC1 + C#Cc1c(F)ccc2cc(O)cc(-c3ncc4c(N5CC6CCC(C5)N6)nc(OCC56CCCN5CC(F)C6)nc4c3F)c12
Second compound 0.0316 µM
  IC50: > 1000 nM
Second compound 0.1 µM
  IC50: > 1000 nM
Second compound 0.316 µM
  IC50: 89.5 nM
Second compound 1 µM
  IC50: 56.2 nM
Second compound 3.16 µM
  IC50: 12.2 nM
Second compound 10 µM
  IC50: < 3.16 nM
Second compound 0.0316 µM, first compound 0.00316 µM
  viability, T/C: 105%
Second compound 0.0316 µM, first compound 0.01 µM
  viability, T/C: 102%
[1]
  viability, T/C: 79%
[2]
  viability, T/C: 61.8%
[3]
  viability, T/C: 61.2%
[4]
  viability, T/C: 60.9%
Second compound 0.1 µM, first compound 0.00316 µM
  viability, T/C: 104%
Second compound 0.1 µM, first compound 0.01 µM
  viability, T/C: 108%
[5]
  viability, T/C: 70%
[6]
  viability, T/C: 56.8%
[7]
  viability, T/C: 50.9%
[8]
  viability, T/C: 52.2%
Second compound 0.316 µM, first compound 0.00316 µM
  viability, T/C: 94.2%
Second compound 0.316 µM, first compound 0.01 µM
  viability, T/C: 109%
[9]
  viability, T/C: 71.8%
[10]
  viability, T/C: 51.4%
[11]
  viability, T/C: 48.4%
[12]
  viability, T/C: 43.3%
Second compound 1 µM, first compound 0.00316 µM
  viability, T/C: 81.2%
Second compound 1 µM, first compound 0.01 µM
  viability, T/C: 75%
[13]
  viability, T/C: 56.6%
[14]
  viability, T/C: 42.6%
[15]
  viability, T/C: 40.4%
[16]
  viability, T/C: 34.7%
Second compound 3.16 µM, first compound 0.00316 µM
  viability, T/C: 54.5%
Second compound 3.16 µM, first compound 0.01 µM
  viability, T/C: 53.3%
[17]
  viability, T/C: 37.9%
[18]
  viability, T/C: 29%
[19]
  viability, T/C: 30%
[20]
  viability, T/C: 22.8%
Second compound 10 µM, first compound 0.00316 µM
  viability, T/C: 30.3%
Second compound 10 µM, first compound 0.01 µM
  viability, T/C: 39.5%
[21]
  viability, T/C: 26.5%
[22]
  viability, T/C: 21.1%
[23]
  viability, T/C: 22.2%
[24]
  viability, T/C: 21%

— PubChem BioAssay AID2060885 (Molecular Pharmacology Branch, DTP, NCI, 2025)
